Measured values from patent publication US12478624B2, “Heterocyclic derivatives, pharmaceutical compositions and their use in the treatment or amelioration of cancer” (Tolremo Therapeutics AG, priority 2019, dated 2025).
pEC50: −log10 of the molar value.

Experiments:
CBP Bromodomain = target: T1, CBP Bromodomain (Homo sapiens, UniProt Q92793); test: Assay 3: CBP bromodomain binding assay (TR-FRET)
T1 construct: purchased Cayman chemicals 600850
Experimental: Assay 3 CBP Bromodomain Binding Assay (TR-FRET)
Compounds solutions of 10 mM in DMSO were pre-diluted in DSMO to 25× stock solutions in DMSO. These were then diluted down to 4× in assay buffer. A dilution series in assay buffer was performed keeping the DMSO concentration stable. 5 μl compound in assay buffer was transferred into the assay plate (provided by assay kit) and the TR-FRET assay Cayman chemicals; 600850) was performed using the manufactor's instructions. After 1 hour incubation at room temperature in the darks, assay plates were read in a Tecan M1000 plate reader or a Tecan Spaks reader using the TR-FRET mode (top read; excitation 340 nm bandwidth […]; emission 620 nm bandwidth […]; gain optimal determined for the first well, number of flashes: 5; flash frequency 100 Hz; integration time: 500 μs, lag time: 100 μs, room temperature). The TR-FRET ratio was calculated by deviding 670 nm emission by 620 nm emission. Values were log transformed and non-linear regression with variable slope (4 parameters) was used to fit values to a dose-response curve to evaluate EC50 values.

A375 cells = test: Assay 1: A375 cells treated with S1152, S1008 and compound, immunofluorescence (sc-365823) signal; assay type: cell-based; details: 1 μM S1152 + 0.5 μM S1008, one day
Summary of the method: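 A375 cells treated one day with 1 μM S1152, 0.5 μM S1008 and compound dose ranges in DMEM/10% FCS, then fixed, permeabilised and immunostained. Green signal normalised to nuclear counterstain (ethidium-type or DAPI), log ratio fitted by four-parameter regression for EC50.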

OPM-2 = test: Assay 2: multiple myeloma cellular efficacy, PrestoBlue cell proliferation/survival; assay type: cell-based; details: Homo sapiens, 96 h, OPM-2 cells, 4 days
Summary of the method: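 Cells seeded at 10000/well and exposed to a compound dose range or vehicle for 4 days, then stained with PrestoBlue for 2 h at 37 °C. Fluorescence was background-subtracted and normalized to vehicle; EC50 came from a four-parameter variable-slope fit against log concentration.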

T1 sequence (Q92793 1085-1192 limits assumed): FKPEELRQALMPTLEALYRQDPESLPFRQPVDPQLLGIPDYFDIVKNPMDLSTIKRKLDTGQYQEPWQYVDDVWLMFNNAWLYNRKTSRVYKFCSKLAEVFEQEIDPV

pEC50 (CBP Bromodomain): > 6.70 | pEC50 (A375 cells): > 6.70
SMILES: CC(=O)N1C[C@H](c2nc(Nc3cc(C)nc(N4CCOCC4)c3)cc(-c3cnccn3)n2)CC[C@@H]1C [Compound 00152, 1-((2S,5R)-2-methyl-5-(4-((2-methyl-6-morpholinopyridin-4-yl)amino)-6-(pyrazin-2-yl)pyrimidin-2-yl)piperidin-1-yl)ethan-1-one]
pEC50 (OPM-2): 6.00 to 6.70
